Measurements taken from patent US20080090814A1, “PYRIDAZINONE COMPOUNDS” (Anadys Pharmaceuticals, Inc., priority 2006, published 2008).

Biological target: HCV NS5B polymerase (Hepatitis C virus genotype 1a, UniProt P27958)
Assay: HCV polymerase inhibition assay (FlashPlate, [α-33P]GTP incorporation)
Assay type: biochemical
Details: 20 nM enzyme, 0.6 μM GTP, 250 nM 5′biotinylated oligo (rG13)/poly rC, 75 min at 28° C.
Procedure: Compounds were tested for HCV polymerase inhibition. Assays were performed in a 96-well streptavidin-coated FlashPlate using 20 nM enzyme, 0.5 μCi of [α-^33P]GTP, 0.6 μM GTP, and 250 nM 5′biotinylated oligo (rG13)/poly rC in 20 mM Tris-HCl, pH 7.5, 5 mM MgCl2, 5 mM dithiothreitol, 0.1 g/L bovine serum albumin, and 100 U/mL RNAse inhibitor. The reaction was stopped by aspiration after 75 min at 28° C. and the plate was washed several times. After washing and drying the plate, incorporated radioactivity was counted using a Microbeta scintillation counter. IC50 values were calculated relative to the uninhibited control and inhibition data were fitted to a 4-parameter IC50 equation. For very potent inhibitors, the data were fitted to a tight binding quadratic equation to obtain IC50 values.

HCV NS5B polymerase, sequence (P27958 2421-3011): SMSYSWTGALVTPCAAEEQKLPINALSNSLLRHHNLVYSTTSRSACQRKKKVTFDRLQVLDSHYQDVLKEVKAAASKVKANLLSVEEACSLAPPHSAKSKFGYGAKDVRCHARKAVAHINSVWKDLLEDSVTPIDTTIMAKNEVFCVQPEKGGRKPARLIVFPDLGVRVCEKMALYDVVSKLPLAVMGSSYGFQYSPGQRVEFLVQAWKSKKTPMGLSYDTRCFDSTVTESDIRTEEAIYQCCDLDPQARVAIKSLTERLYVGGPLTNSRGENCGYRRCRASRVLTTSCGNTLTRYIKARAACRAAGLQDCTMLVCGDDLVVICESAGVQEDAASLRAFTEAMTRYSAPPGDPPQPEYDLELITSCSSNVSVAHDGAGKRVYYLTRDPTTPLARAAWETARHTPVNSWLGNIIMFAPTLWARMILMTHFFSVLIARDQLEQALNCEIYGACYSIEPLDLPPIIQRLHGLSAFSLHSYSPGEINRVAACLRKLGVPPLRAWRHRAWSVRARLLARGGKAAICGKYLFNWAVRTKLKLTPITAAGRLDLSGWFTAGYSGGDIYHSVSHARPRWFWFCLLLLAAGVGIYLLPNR

| IC50 [nM] | Structure (SMILES) |
| --- | --- |
| > 1000 | CC(C)CCn1nc(-c2cccs2)c(O)c(C2=CS(=O)(=O)c3ccccc3N2)c1=O [Compound 16, 4-(1,1-Dioxo-1,4-dihydro-1λ^6-benzo[1,4]thiazin-3-yl)-5-hydroxy-2-(3-methyl-butyl)-6-thiophen-2-yl-2H-pyridazin-3-one] |
| > 1000 | CCCCc1nn(CCC(C)C)c(=O)c(C2=CS(=O)(=O)c3ccccc3N2)c1O [Compound 25, 6-Butyl-4-(1,1-dioxo-1,4-dihydro-1λ^6-benzo[1,4]thiazin-3-yl)-5-hydroxy-2-(3-methyl-butyl)-2H-pyridazin-3-one] |
| < 1000 | CC(C)CCn1nc(-c2cccs2)c(O)c(C2=CS(=O)(=O)c3cc(NS(C)(=O)=O)ccc3N2)c1=O [Compound 29, N-{3-[5-Hydroxy-2-(3-methyl-butyl)-3-oxo-6-thiophen-2-yl-2,3-dihydro-pyridazin-4-yl]-1,1-dioxo-1,4-dihydro-1λ^6-benzo[1,4]thiazin-7-yl}-methanesulfonamide] |
